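Five concentrations, 48 hours, 96-well plates. GI50 = concentration required for 50% inhibition of growth.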 Calls of active or inactive are those of the source. Cut-off read from the data, not from the text of the source: active = GI50 up to about 1.1 µM and inactive = higher.
Legend:
Test in all cases: inhibition of tumour cell growth, NCI panel, 48 h
KM-20L2 = tested on: KM-20L2
SK-MEL-5 = tested on: SK-MEL-5
TK-10 = tested on: TK-10
K562 = tested on: K562
UACC-62 = tested on: UACC-62
SNB-75 = tested on: SNB-75
HOP-62 = tested on: HOP-62
HCT-15 = tested on: HCT-15
DMS-114 = tested on: DMS-114
XF498 = tested on: XF498
EKVX = tested on: EKVX
RXF 393 = tested on: RXF 393
SW-620 = tested on: SW-620
NCI-H226 = tested on: NCI-H226
SK-MEL-28 = tested on: SK-MEL-28
HCC 2998 = tested on: HCC 2998
ACHN = tested on: ACHN
SK-MEL-2 = tested on: SK-MEL-2
M14 = tested on: M14
M19-MEL = tested on: M19-MEL
UACC-257 = tested on: UACC-257
SF-539 = tested on: SF-539
DLD-1 = tested on: DLD-1
IGROV-1 = tested on: IGROV-1
SNB-19 = tested on: SNB-19
HT-29 = tested on: HT-29
DMS-273 = tested on: DMS-273
KM12 = tested on: KM12
HCT-116 = tested on: HCT-116
UO-31 = tested on: UO-31
NCI-H460 = tested on: NCI-H460
OVCAR-4 = tested on: OVCAR-4
RPMI-8226 = tested on: RPMI-8226
OVCAR-8 = tested on: OVCAR-8
LOX IMVI = tested on: LOX IMVI
HOP-18 = tested on: HOP-18
CCRF-CEM = tested on: CCRF-CEM
HL-60 = tested on: HL-60
786-0 = tested on: 786-0
NCI-H522 = tested on: NCI-H522
SNB-78 = tested on: SNB-78
U-251 = tested on: U-251
SF-268 = tested on: SF-268
COLO 205 = tested on: COLO 205
SK-OV-3 = tested on: SK-OV-3
MOLT-4 = tested on: MOLT-4
SN12C = tested on: SN12C
HOP-92 = tested on: HOP-92
OVCAR-3 = tested on: OVCAR-3
SF-295 = tested on: SF-295
A549 = tested on: A549
A498 = tested on: A498
NCI-H23 = tested on: NCI-H23
Malme-3M = tested on: Malme-3M
LXFL 529 = tested on: LXFL 529
SR = tested on: SR
CAKI-1 = tested on: CAKI-1
OVCAR-5 = tested on: OVCAR-5
MCF7 = tested on: MCF7
NCI/ADR-RES = tested on: NCI/ADR-RES

For `O=C(NCC(=O)N1CCOC1=O)OCc1ccccc1`, the GI50 (KM-20L2) was > 100 µM (inactive), the GI50 (SK-MEL-5) was > 100 µM (inactive) and the GI50 (TK-10) was > 100 µM (inactive). The GI50 (K562) was > 100 µM (inactive), the GI50 (UACC-62) was > 100 µM (inactive) and the GI50 (SNB-75) was > 100 µM (inactive). For the same compound, the GI50 (HOP-62) was > 100 µM (inactive), the GI50 (HCT-15) was > 100 µM and the GI50 (DMS-114) was > 100 µM (inactive). For the same compound, the GI50 (XF498) was > 100 µM (inactive), the GI50 (EKVX) was > 100 µM (inactive) and the GI50 (RXF 393) was > 100 µM (inactive). The GI50 (SW-620) was > 100 µM (inactive), the GI50 (NCI-H226) was > 100 µM (inactive) and the GI50 (SK-MEL-28) was > 100 µM (inactive). The GI50 (HCC 2998) was > 100 µM (inactive), the GI50 (ACHN) was > 100 µM (inactive) and the GI50 (SK-MEL-2) was > 100 µM (inactive). The GI50 (M14) was > 100 µM (inactive), the GI50 (M19-MEL) was > 100 µM (inactive) and the GI50 (UACC-257) was > 100 µM (inactive). For the same compound, the GI50 (SF-539) was > 100 µM (inactive), the GI50 (DLD-1) was > 100 µM (inactive) and the GI50 (IGROV-1) was > 100 µM (inactive). For the same compound, the GI50 (SNB-19) was > 100 µM (inactive), the GI50 (HT-29) was > 100 µM (inactive) and the GI50 (DMS-273) was > 100 µM (inactive). For the same compound, the GI50 (KM12) was > 100 µM (inactive), the GI50 (HCT-116) was > 100 µM (inactive) and the GI50 (UO-31) was > 100 µM (inactive). For the same compound, the GI50 (NCI-H460) was > 100 µM (inactive), the GI50 (OVCAR-4) was > 100 µM (inactive) and the GI50 (RPMI-8226) was > 100 µM (inactive). For the same compound, the GI50 (OVCAR-8) was > 100 µM (inactive), the GI50 (LOX IMVI) was > 100 µM (inactive) and the GI50 (HOP-18) was > 100 µM (inactive). For the same compound, the GI50 (CCRF-CEM) was > 100 µM (inactive), the GI50 (HL-60) was > 100 µM (inactive) and the GI50 (786-0) was > 100 µM (inactive). The GI50 (NCI-H522) was > 100 µM (inactive), the GI50 (SNB-78) was > 100 µM (inactive) and the GI50 (U-251) was > 100 µM (inactive). For the same compound, the GI50 (SF-268) was > 100 µM (inactive), the GI50 (COLO 205) was > 100 µM (inactive) and the GI50 (SK-OV-3) was > 100 µM (inactive). For the same compound, the GI50 (MOLT-4) was > 100 µM (inactive), the GI50 (SN12C) was > 100 µM (inactive) and the GI50 (HOP-92) was > 100 µM (inactive). The GI50 (OVCAR-3) was > 100 µM (inactive), the GI50 (SF-295) was > 100 µM (inactive) and the GI50 (A549) was > 100 µM (inactive). The GI50 (A498) was > 100 µM (inactive) and the GI50 (NCI-H23) was > 100 µM (inactive).

`COC(=O)C(=O)C(C#N)c1cccc2ccccc12` (centres undefined) was tested, and the GI50 (Malme-3M) was > 100 µM (inactive), the GI50 (KM-20L2) was > 100 µM (inactive) and the GI50 (SK-MEL-5) was > 100 µM (inactive). The GI50 (LXFL 529) was > 100 µM (inactive), the GI50 (K562) was > 100 µM (inactive) and the GI50 (UACC-62) was > 100 µM (inactive). The GI50 (SNB-75) was 97.3 µM (inactive), the GI50 (HOP-62) was > 100 µM (inactive) and the GI50 (SR) was > 100 µM (inactive). The GI50 (HCT-15) was > 100 µM, the GI50 (DMS-114) was > 100 µM (inactive) and the GI50 (XF498) was > 100 µM (inactive). The GI50 (EKVX) was > 100 µM (inactive), the GI50 (SW-620) was > 100 µM (inactive) and the GI50 (NCI-H226) was > 100 µM (inactive). The GI50 (SK-MEL-28) was > 100 µM (inactive), the GI50 (HCC 2998) was > 100 µM (inactive) and the GI50 (ACHN) was > 100 µM (inactive). For the same compound, the GI50 (M14) was > 100 µM (inactive), the GI50 (M19-MEL) was > 100 µM (inactive) and the GI50 (UACC-257) was > 100 µM (inactive). The GI50 (SF-539) was > 100 µM (inactive), the GI50 (DLD-1) was > 100 µM (inactive) and the GI50 (IGROV-1) was > 100 µM (inactive). For the same compound, the GI50 (SNB-19) was > 100 µM (inactive), the GI50 (HT-29) was > 100 µM (inactive) and the GI50 (DMS-273) was > 100 µM (inactive). For the same compound, the GI50 (KM12) was 22.9 µM (inactive), the GI50 (HCT-116) was > 100 µM (inactive) and the GI50 (UO-31) was > 100 µM (inactive). The GI50 (OVCAR-4) was > 100 µM (inactive), the GI50 (RPMI-8226) was > 100 µM (inactive) and the GI50 (OVCAR-8) was > 100 µM (inactive). The GI50 (CAKI-1) was > 100 µM (inactive), the GI50 (LOX IMVI) was > 100 µM (inactive) and the GI50 (HOP-18) was > 100 µM (inactive). The GI50 (CCRF-CEM) was > 100 µM (inactive), the GI50 (HL-60) was > 100 µM (inactive) and the GI50 (786-0) was > 100 µM (inactive). For the same compound, the GI50 (NCI-H522) was > 100 µM (inactive), the GI50 (SNB-78) was > 100 µM (inactive) and the GI50 (U-251) was > 100 µM (inactive). The GI50 (SF-268) was > 100 µM (inactive), the GI50 (COLO 205) was > 100 µM (inactive) and the GI50 (SK-OV-3) was > 100 µM (inactive). For the same compound, the GI50 (OVCAR-5) was > 100 µM (inactive), the GI50 (MOLT-4) was > 100 µM (inactive) and the GI50 (SN12C) was > 100 µM (inactive). For the same compound, the GI50 (HOP-92) was > 100 µM (inactive), the GI50 (OVCAR-3) was > 100 µM (inactive) and the GI50 (SF-295) was > 100 µM (inactive). For the same compound, the GI50 (A549) was > 100 µM (inactive), the GI50 (A498) was > 100 µM (inactive) and the GI50 (NCI-H23) was > 100 µM (inactive).

For `Cc1c2ccncc2c(C)c2c1[nH]c1ccc(Cl)cc12`, the GI50 (Malme-3M) was 5.68 µM (inactive), the GI50 (KM-20L2) was 2.56 µM (inactive) and the GI50 (SK-MEL-5) was 4.75 µM (inactive). For the same compound, the GI50 (TK-10) was 6.07 µM (inactive), the GI50 (LXFL 529) was 1.84 µM (inactive) and the GI50 (K562) was 1.62 µM (inactive). For the same compound, the GI50 (UACC-62) was 3.37 µM (inactive), the GI50 (SNB-75) was 3.55 µM (inactive) and the GI50 (HOP-62) was 3.85 µM (inactive). For the same compound, the GI50 (HCT-15) was 1.75 µM, the GI50 (DMS-114) was 2.07 µM (inactive) and the GI50 (XF498) was 4.31 µM (inactive). For the same compound, the GI50 (EKVX) was 4.84 µM (inactive), the GI50 (RXF 393) was 4.58 µM (inactive) and the GI50 (SW-620) was 1.52 µM (inactive). For the same compound, the GI50 (NCI-H226) was 3.17 µM (inactive), the GI50 (SK-MEL-28) was 5.69 µM (inactive) and the GI50 (HCC 2998) was 7.76 µM (inactive). The GI50 (ACHN) was 1.26 µM (inactive), the GI50 (MCF7) was 2.17 µM (inactive) and the GI50 (SK-MEL-2) was 3.51 µM (inactive). For the same compound, the GI50 (M14) was 4.57 µM (inactive), the GI50 (M19-MEL) was 2.56 µM (inactive) and the GI50 (SF-539) was 2.44 µM (inactive). The GI50 (DLD-1) was 2.15 µM (inactive), the GI50 (IGROV-1) was 2.86 µM (inactive) and the GI50 (SNB-19) was 2.35 µM (inactive). The GI50 (HT-29) was 2.2 µM (inactive), the GI50 (NCI/ADR-RES) was 1.22 µM (inactive) and the GI50 (DMS-273) was 1.59 µM (inactive). For the same compound, the GI50 (KM12) was 1.86 µM (inactive), the GI50 (HCT-116) was 1.07 µM (active) and the GI50 (UO-31) was 3.56 µM (inactive). For the same compound, the GI50 (NCI-H460) was 1.54 µM (inactive), the GI50 (OVCAR-4) was 2.11 µM (inactive) and the GI50 (RPMI-8226) was 1.59 µM (inactive). For the same compound, the GI50 (OVCAR-8) was 1.22 µM (inactive), the GI50 (LOX IMVI) was 1.55 µM (inactive) and the GI50 (HOP-18) was 2.52 µM (inactive). The GI50 (CCRF-CEM) was 1.36 µM (inactive), the GI50 (HL-60) was 2.11 µM (inactive) and the GI50 (786-0) was 1.07 µM (active). For the same compound, the GI50 (NCI-H522) was 2.36 µM (inactive), the GI50 (SNB-78) was 3.94 µM (inactive) and the GI50 (U-251) was 5.13 µM (inactive). The GI50 (COLO 205) was 2.16 µM (inactive), the GI50 (SK-OV-3) was 7.19 µM (inactive) and the GI50 (OVCAR-5) was 7.05 µM (inactive). The GI50 (SN12C) was 3.41 µM (inactive), the GI50 (OVCAR-3) was 2.2 µM (inactive) and the GI50 (A498) was 4.46 µM (inactive). The GI50 (NCI-H23) was 3.56 µM (inactive).
